From ChEMBL document CHEMBL4765295, “Synthesis, pharmacological profile and 2D-QSAR studies of curcumin-amino acid conjugates as potential drug candidates” (Eur J Med Chem, 2020)

System: Rattus norvegicus
Experiment: Antiinflammatory activity in Wistar rat model of carrageenan-induced paw edema assessed as reduction in thickness of paw edema at 10 mg/kg, ip pretreated for 1 hr followed by carrageenan challenge and measured after 1 hr (reference value: 2.41 +/-0.05 mm)
Format: functional
Details: time 1 hr after carrageenan

Compound | Activity
COc1cc(/C=C/C(=O)/C=C(O)/C=C/c2ccc(OC(=O)CN)c(OC)c2)ccc1OC(=O)CN.Cl.Cl | 0.82 mm

System: Rattus norvegicus
Experiment: Anti-inflammatory activity in Wistar rat assessed as inhibition of carrageenan-induced paw edema at 10 mg/kg, ip pretreated for 1 hr followed by carrageenan challenge and measured after 1 hr relative to control (reference value: 0.00 +/-0.02 %)
Format: functional
Details: time 2 hrs

Compound | inhibition in vivo at 10 mg/kg
COc1cc(/C=C/C(=O)/C=C(O)/C=C/c2ccc(OC(=O)CN)c(OC)c2)ccc1OC(=O)CN.Cl.Cl | 66%

System: Rattus norvegicus
Experiment: Antiinflammatory activity in Wistar rat model of carrageenan-induced paw edema assessed as reduction in thickness of paw edema at 10 mg/kg, ip pretreated for 1 hr followed by carrageenan challenge and measured after 2 hrs (reference value: 2.06 +/-0.09 mm)
Format: functional
Details: time 3 hrs

Compound | Activity
COc1cc(/C=C/C(=O)/C=C(O)/C=C/c2ccc(OC(=O)CN)c(OC)c2)ccc1OC(=O)CN.Cl.Cl | 0.69 mm

System: Rattus norvegicus
Experiment: Anti-inflammatory activity in Wistar rat assessed as inhibition of carrageenan-induced paw edema at 10 mg/kg, ip pretreated for 1 hr followed by carrageenan challenge and measured after 2 hr relative to control (reference value: 0.00 +/-0.03 %)
Format: functional
Details: time 3 hrs

Compound | inhibition in vivo at 10 mg/kg
COc1cc(/C=C/C(=O)/C=C(O)/C=C/c2ccc(OC(=O)CN)c(OC)c2)ccc1OC(=O)CN.Cl.Cl | 67%

System: Rattus norvegicus
Experiment: Antiinflammatory activity in Wistar rat model of carrageenan-induced paw edema assessed as reduction in thickness of paw edema at 10 mg/kg, ip pretreated for 1 hr followed by carrageenan challenge and measured after 3 hrs (reference value: 1.79 +/-0.07 mm)
Format: functional
Details: time 4 hrs

Compound | Activity
COc1cc(/C=C/C(=O)/C=C(O)/C=C/c2ccc(OC(=O)CN)c(OC)c2)ccc1OC(=O)CN.Cl.Cl | 0.46 mm

System: Rattus norvegicus
Experiment: Anti-inflammatory activity in Wistar rat assessed as inhibition of carrageenan-induced paw edema at 10 mg/kg, ip pretreated for 1 hr followed by carrageenan challenge and measured after 3 hr relative to control (reference value: 0.00 +/-0.1 %)
Format: functional
Details: time 4 hrs

Compound | inhibition in vivo at 10 mg/kg
COc1cc(/C=C/C(=O)/C=C(O)/C=C/c2ccc(OC(=O)CN)c(OC)c2)ccc1OC(=O)CN.Cl.Cl | 74%

System: Rattus norvegicus
Experiment: Antiinflammatory activity in Wistar rat model of carrageenan-induced paw edema assessed as reduction in thickness of paw edema at 10 mg/kg, ip pretreated for 1 hr followed by carrageenan challenge and measured after 4 hrs (reference value: 1.40 +/-0.10 mm)
Format: functional
Details: time 5 hrs

Compound | Activity
COc1cc(/C=C/C(=O)/C=C(O)/C=C/c2ccc(OC(=O)CN)c(OC)c2)ccc1OC(=O)CN.Cl.Cl | 0.17 mm

System: Rattus norvegicus
Experiment: Anti-inflammatory activity in Wistar rat assessed as inhibition of carrageenan-induced paw edema at 10 mg/kg, ip pretreated for 1 hr followed by carrageenan challenge and measured after 4 hr relative to control (reference value: 0.00 +/-0.4 %)
Format: functional
Details: time 5 hrs

Compound | inhibition in vivo at 10 mg/kg
COc1cc(/C=C/C(=O)/C=C(O)/C=C/c2ccc(OC(=O)CN)c(OC)c2)ccc1OC(=O)CN.Cl.Cl | 88%

System: Rattus norvegicus
Experiment: Antiinflammatory activity in Wistar rat model of carrageenan-induced paw edema assessed as reduction in thickness of paw edema at 10 mg/kg, ip pretreated for 1 hr followed by carrageenan challenge and measured after 24 hrs (reference value: 0.83 +/-0.08 mm)
Format: functional
Details: time 25 hrs

Compound | Activity
COc1cc(/C=C/C(=O)/C=C(O)/C=C/c2ccc(OC(=O)CN)c(OC)c2)ccc1OC(=O)CN.Cl.Cl | 0.48 mm

System: Rattus norvegicus
Experiment: Anti-inflammatory activity in Wistar rat assessed as inhibition of carrageenan-induced paw edema at 10 mg/kg, ip pretreated for 1 hr followed by carrageenan challenge and measured after 24 hr relative to control (reference value: 0.00 +/-0.3 %)
Format: functional
Details: time 25 hrs

Compound | inhibition in vivo at 10 mg/kg
COc1cc(/C=C/C(=O)/C=C(O)/C=C/c2ccc(OC(=O)CN)c(OC)c2)ccc1OC(=O)CN.Cl.Cl | 42%

System: Rattus norvegicus
Experiment: Anti-inflammatory activity in Wistar rat assessed as inhibition of carrageenan-induced paw edema at 10 mg/kg, ip pretreated for 1 hr followed by carrageenan challenge and measured after 4 hr relative to indomethacin
Format: functional
Details: time 5 hrs

Compound | inhibition in vivo at 10 mg/kg
COc1cc(/C=C/C(=O)/C=C(O)/C=C/c2ccc(OC(=O)CN)c(OC)c2)ccc1OC(=O)CN.Cl.Cl | 101%

System: not listed separately
Experiment: Ulcerogenic activity in fasted albino mouse assessed as incidence of gastric ulceration at 10 mg/kg, po for 3 days (reference value: 0 %)
Format: toxicity, organism-based
Details: in vivo, 72 h, time 3 day

Compound | Activity
COc1cc(/C=C/C(=O)/C=C(O)/C=C/c2ccc(OC(=O)CN)c(OC)c2)ccc1OC(=O)CN.Cl.Cl | 0%

System: not listed separately
Experiment: Ulcerogenic activity in fasted albino mouse assessed as average number of ulcers in gastric mucosa at 10 mg/kg, po for 3 days (reference value: 0)
Format: toxicity, organism-based
Details: in vivo, 72 h, time 3 day

Compound | Activity
COc1cc(/C=C/C(=O)/C=C(O)/C=C/c2ccc(OC(=O)CN)c(OC)c2)ccc1OC(=O)CN.Cl.Cl | 0

System: not listed separately
Experiment: Ulcerogenic activity in fasted albino mouse assessed as average severity of ulcers in gastric mucosa at 10 mg/kg, po for 3 days (reference value: 0)
Format: toxicity, organism-based
Details: in vivo, 72 h, time 3 day

Compound | Activity
COc1cc(/C=C/C(=O)/C=C(O)/C=C/c2ccc(OC(=O)CN)c(OC)c2)ccc1OC(=O)CN.Cl.Cl | 0

System: not listed separately
Experiment: Ulcerogenic activity in fasted albino mouse assessed as ulcer index in gastric mucosa at 10 mg/kg, po for 3 days (reference value: 0)
Format: toxicity, organism-based
Details: in vivo, 72 h, time 3 day

Compound | UI
COc1cc(/C=C/C(=O)/C=C(O)/C=C/c2ccc(OC(=O)CN)c(OC)c2)ccc1OC(=O)CN.Cl.Cl | 0

System: Splenocyte
Experiment: Immunomodulatory activity in Swiss albino mouse splenocytes assessed as cell viability at 10 uM by measuring stimulation index incubated for 72 hrs in presence of mitogenic stimulus phytohaemagglutinin by MTT assay (reference value: 1.00 +/- 0.24)
Format: functional
Details: not given

Compound | Activity_index
COc1cc(/C=C/C(=O)/C=C(O)/C=C/c2ccc(OC(=O)CN)c(OC)c2)ccc1OC(=O)CN.Cl.Cl | 0.99

System: Splenocyte
Experiment: Immunomodulatory activity in Swiss albino mouse splenocytes assessed as cell viability at 10 uM by measuring inhibition of stimulation index incubated for 72 hrs in presence of mitogenic stimulus phytohaemagglutinin by MTT assay relative to indomethacin
Format: functional
Details: read-out: Activity

Compound | viability at 10 µM
COc1cc(/C=C/C(=O)/C=C(O)/C=C/c2ccc(OC(=O)CN)c(OC)c2)ccc1OC(=O)CN.Cl.Cl | 122%

System: Peritoneal macrophage
Experiment: Antiinflammatory activity in […] mouse Peritoneal macrophages assessed as reduction in LPS-induced NO production by measuring reduction in stimulation index at 10 uM preincubated for 1 hr followed by LPS stimulation measured after 24 hrs by Griess method (reference value: 27.31 +/- 2.56 uM)
Format: functional
Details: time 25 hrs

Compound | Activity
COc1cc(/C=C/C(=O)/C=C(O)/C=C/c2ccc(OC(=O)CN)c(OC)c2)ccc1OC(=O)CN.Cl.Cl | 13.66 µM

System: Peritoneal macrophage
Experiment: Antiinflammatory activity in […] mouse Peritoneal macrophages assessed as inhibition of LPS-induced NO production at 10 uM preincubated for 1 hr followed by LPS stimulation measured after 24 hrs by Griess method relative to control (reference value: 0.0 %)
Format: functional
Parameters: scale not given: the % may be the effect or the level left
Details: time 25 hrs

Compound | Activity
COc1cc(/C=C/C(=O)/C=C(O)/C=C/c2ccc(OC(=O)CN)c(OC)c2)ccc1OC(=O)CN.Cl.Cl | 49.98%

System: Mus musculus
Experiment: Analgesic activity in albino mouse assessed reduction in acetic acid-induced abdominal writhing by measuring writing reflex at 10 mg/kg, ip pretreated for 1 hr followed by acetic acid challenge and measured starting 5 mins post acetic acid challenge for 10 mins (reference value: 42.4 +/- 1.02)
Format: functional
Details: time 75 min, 1.25 h

Compound | Activity
COc1cc(/C=C/C(=O)/C=C(O)/C=C/c2ccc(OC(=O)CN)c(OC)c2)ccc1OC(=O)CN.Cl.Cl | 14.6
